Experimental data reported in patent US20260258035A1, “FIVE-MEMBERED AND SIX-MEMBERED NITROGEN-CONTAINING COMPOUND, AND INTERMEDIATE, PREPARATION METHOD AND USE THEREOF” (HANGZHOU SYNRX THERAPEUTICS BIOMEDICAL TECHNOLOGY CO., LTD., priority 2022, published 2026).

Tests used:
PARG = PARG (Homo sapiens, UniProt Q86W56); assay: Biochemical assay (PARG, TFMU-ADPr substrate)
HCC1806 = assay: Cell viability assay (CellTiter-Glo); assay type: cell-based, Human; conditions: Homo sapiens, HCC1806, 168 h, HCC1806, 7 days, CellTiter-Glo; read-out: IC50 (nM) in cell viability assay
[1] = 4 nM PARG, 66.2 uM TFMU-ADPr, 3 min at room temperature

PARG, sequence (Q86W56 whole entry): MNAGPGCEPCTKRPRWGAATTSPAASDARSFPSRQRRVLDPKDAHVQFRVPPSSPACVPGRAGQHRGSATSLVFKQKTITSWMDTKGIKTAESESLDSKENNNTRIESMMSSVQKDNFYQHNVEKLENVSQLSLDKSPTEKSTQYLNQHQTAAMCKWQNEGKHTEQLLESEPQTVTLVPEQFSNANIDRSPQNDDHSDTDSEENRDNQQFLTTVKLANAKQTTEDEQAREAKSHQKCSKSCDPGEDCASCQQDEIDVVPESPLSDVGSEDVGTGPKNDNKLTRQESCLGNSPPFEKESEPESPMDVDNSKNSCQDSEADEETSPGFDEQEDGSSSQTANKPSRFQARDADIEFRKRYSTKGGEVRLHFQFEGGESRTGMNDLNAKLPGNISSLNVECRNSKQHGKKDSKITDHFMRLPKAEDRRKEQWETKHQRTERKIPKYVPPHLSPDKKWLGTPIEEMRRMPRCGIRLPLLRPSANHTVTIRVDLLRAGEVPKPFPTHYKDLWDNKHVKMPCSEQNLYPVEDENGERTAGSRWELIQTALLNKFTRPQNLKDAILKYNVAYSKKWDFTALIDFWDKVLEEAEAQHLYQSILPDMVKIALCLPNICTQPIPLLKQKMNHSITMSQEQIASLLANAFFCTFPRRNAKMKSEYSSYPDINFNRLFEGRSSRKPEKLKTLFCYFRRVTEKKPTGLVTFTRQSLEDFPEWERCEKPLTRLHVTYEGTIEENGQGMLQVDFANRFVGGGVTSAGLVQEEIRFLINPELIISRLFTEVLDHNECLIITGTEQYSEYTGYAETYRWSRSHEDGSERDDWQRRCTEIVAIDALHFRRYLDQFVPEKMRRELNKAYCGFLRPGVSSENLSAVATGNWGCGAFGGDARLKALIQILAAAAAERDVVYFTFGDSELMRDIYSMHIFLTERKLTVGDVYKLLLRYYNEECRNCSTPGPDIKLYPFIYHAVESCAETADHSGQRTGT

Compound	IC50 (PARG; [1])	IC50 (PARG; PARG, TFMU-ADPr substrate)	IC50 (HCC1806)
N#CC1(NS(=O)(=O)c2cc(N3CCC(OC(F)(F)F)CC3)c3cnc(-c4nnc(C(F)F)s4)n3c2)CC1 [Example 48, N-(1-cyanocyclopropyl)-3-(5-(difluoromethyl)-1,3,4-thiadiazol-2-yl)-8-(4-(trifluoromethoxy)piperidin-1-yl)imidazo[1,5-a]pyridine-6-sulfonamide]	< 100 nM	13.2 nM	–
CC(C)C(=O)N1CCN(c2cc(S(=O)(=O)NC3(COC(F)(F)F)CC3)cn3c(-c4nnc(C(F)F)s4)ncc23)CC1 [Example 49, 3-(5-(difluoromethyl)-1,3,4-thiadiazol-2-yl)-8-(4-isobutyrylpiperazin-1-yl)-N-(1-((trifluoromethoxy)methyl)cyclopropyl)imidazo[1,5-a]pyridine-6-sulfonamide]	< 100 nM	38.4 nM	–
CC1(O)CCN(c2cc(S(=O)(=O)NC3(CF)COC3)cn3c(-c4nnc(C(F)F)s4)ncc23)CC1 [Example 73, 3-(5-(difluoromethyl)-1,3,4-thiadiazol-2-yl)-N-(3-(fluoromethyl)oxetan-3-yl)-8-(4-hydroxy-4-methylpiperidin-1-yl)imidazo[1,5-a]pyridine-6-sulfonamide]	< 100 nM	41.7 nM	–
N#CC1(NS(=O)(=O)c2cc(N3CC4COCC4C3)c3cnc(-c4nnc(C(F)F)s4)n3c2)CC1 (stereo not drawn) [Example 79, N-(1-cyanocyclopropyl)-3-(5-(difluoromethyl)-1,3,4-thiadiazol-2-yl)-8-(tetrahydro-1H-furo[3,4-c]pyrrol-5(3H)-yl)imidazo[1,5-a]pyridine-6-sulfonamide]	< 100 nM	52.5 nM	–
CC(C)C(=O)N1CCN(c2cc(S(=O)(=O)N[C@H]3C[C@@H]3F)cn3c(-c4nnc(C(F)F)s4)ncc23)CC1 [Example 81, 3-(5-(difluoromethyl)-1,3,4-thiadiazol-2-yl)-N-((1S,2S)-2-fluorocyclopropyl)-8-(4-isobutyrylpiperazin-1-yl)imidazo[1,5-a]pyridine-6-sulfonamide]	> 1000 nM	–	–
CC(N1CCN(c2cc(S(=O)(=O)NC3(C#N)CC3)cn3c(-c4nnc(C(F)F)s4)ncc23)C[C@H]1C)C(F)(F)F (stereo partly drawn) [Example 83, N-(1-cyanocyclopropyl)-3-(5-(difluoromethyl)-1,3,4-thiadiazol-2-yl)-8-((3R)-3-methyl-4-(1,1,1-trifluoropropan-2-yl)piperazin-1-yl)imidazo[1,5-a]pyridine-6-sulfonamide]	100 to 500 nM	347 nM	–
N#CC1(NS(=O)(=O)c2cc(N3CCC(O)(C(F)(F)F)CC3)c3cnc(-c4nnc(C(F)F)s4)n3c2)CC1 [Example 89, N-(1-cyanocyclopropyl)-3-(5-(difluoromethyl)-1,3,4-thiadiazol-2-yl)-8-(4-hydroxy-4-(trifluoromethyl)piperidin-1-yl)imidazo[1,5-a]pyridine-6-sulfonamide]	100 to 500 nM	115 nM	–
N#CC1(NS(=O)(=O)c2cc(N3CCC(F)(CO)CC3)c3cnc(-c4nnc(C(F)F)s4)n3c2)CC1 [Example 90, N-(1-cyanocyclopropyl)-3-(5-(difluoromethyl)-1,3,4-thiadiazol-2-yl)-8-(4-fluoro-4-(hydroxymethyl)piperidin-1-yl)imidazo[1,5-a]pyridine-6-sulfonamide]	< 100 nM	34.7 nM	–
C[C@@H]1CN(c2cc(S(=O)(=O)NC3(C#N)CC3)cn3c(-c4nnc(C(F)F)s4)ncc23)[C@@H](C)CN1C(=O)C1(C)CC1 [Example 93, N-(1-cyanocyclopropyl)-3-(5-(difluoromethyl)-1,3,4-thiadiazol-2-yl)-8-((2S,5R)-2,5-dimethyl-4-(1-methylcyclopropane-1-carbonyl)piperazin-1-yl)imidazo[1,5-a]pyridine-6-sulfonamide]	< 100 nM	75.9 nM	–
CC1(C(=O)N2CCN(c3cc(S(=O)(=O)NC4(C#N)CC4)cn4c(-c5nnc(C(F)F)s5)ncc34)CC2(C)C)CC1 [Example 95, N-(1-cyanocyclopropyl)-3-(5-(difluoromethyl)-1,3,4-thiadiazol-2-yl)-8-(3,3-dimethyl-4-(1-methylcyclopropane-1-carbonyl)piperazin-1-yl)imidazo[1,5-a]pyridine-6-sulfonamide]	< 100 nM	100 nM	–
CC(C)C(=O)N1CCN(c2cc(S(=O)(=O)NC3(C#N)CC3)cc3c(-c4nnc(C(F)F)s4)nc(Cl)n23)CC1 [Example 98, 3-chloro-N-(1-cyanocyclopropyl)-1-(5-(difluoromethyl)-1,3,4-thiadiazol-2-yl)-5-(4-isobutyrylpiperazin-1-yl)imidazo[1,5-a]pyridine-7-sulfonamide]	–	–	> 30000 nM
CC1(O)CCN(c2cc(S(=O)(=O)NC3(C)CC3)cn3c(-c4nnc(C(F)F)s4)nnc23)CC1 [Example 116, 3-(5-(difluoromethyl)-1,3,4-thiadiazol-2-yl)-8-(4-hydroxy-4-methylpiperidin-1-yl)-N-(1-methylcyclopropyl)-[1,2,4]triazolo[4,3-a]pyridine-6-sulfonamide]	< 100 nM	50 nM	–
C[C@@H]1CN(c2cc(S(=O)(=O)NC3CC3)cn3c(-c4nnc(C(F)F)s4)nnc23)CCN1C(=O)C1(C)CC1 [Example 118, (R)-N-cyclopropyl-3-(5-(difluoromethyl)-1,3,4-thiadiazol-2-yl)-8-(3-methyl-4-(1-methylcyclopropane-1-carbonyl)piperazin-1-yl)-[1,2,4]triazolo[4,3-a]pyridine-6-sulfonamide]	< 100 nM	72.4 nM	–
C[C@H]1CN(c2cc(S(=O)(=O)NC3(C)COC3)cn3c(-c4nnc(C(F)F)s4)nc(Cl)c23)C[C@H](CO)O1 [Example 133, 1-chloro-3-(5-(difluoromethyl)-1,3,4-thiadiazol-2-yl)-8-((2R,6S)-2-(hydroxymethyl)-6-methylmorpholino)-N-(3-methyloxetan-3-yl)imidazo[1,5-a]pyridine-6-sulfonamide]	–	13.2 nM	–
C[C@H]1CN(c2cc(S(=O)(=O)NC3(C)COC3)cn3c(-c4nnc(C(F)(F)F)s4)nc(Cl)c23)C[C@H](C)O1 [Example 134, 1-chloro-8-((2S,6S)-2,6-dimethylmorpholino)-N-(3-methyloxetan-3-yl)-3-(5-(trifluoromethyl)-1,3,4-thiadiazol-2-yl)imidazo[1,5-a]pyridine-6-sulfonamide]	–	69.2 nM	–
N#CC1(NS(=O)(=O)c2cc(-c3ccc4c(c3)CCO4)c3cnc(-c4nnc(C(F)F)s4)n3c2)CC1 [Example 140, N-(1-cyanocyclopropyl)-3-(5-(difluoromethyl)-1,3,4-thiadiazol-2-yl)-8-(2,3-dihydrobenzofuran-5-yl)imidazo[1,5-a]pyridine-6-sulfonamide]	< 100 nM	26.2 nM	–
N#CC1(NS(=O)(=O)c2cc(-c3ccc(OC(F)(F)F)cc3)c3cnc(-c4nnc(C(F)F)s4)n3c2)CC1 [Example 141, N-(1-cyanocyclopropyl)-3-(5-(difluoromethyl)-1,3,4-thiadiazol-2-yl)-8-(4-(trifluoromethoxy)phenyl)imidazo[1,5-a]pyridine-6-sulfonamide]	100 to 500 nM	280 nM	–
Cc1c(-c2cc(S(=O)(=O)NC3(C#N)CC3)cn3c(-c4nnc(C(F)F)s4)ncc23)cnn1C(C)C [Example 143, N-(1-cyanocyclopropyl)-3-(5-(difluoromethyl)-1,3,4-thiadiazol-2-yl)-8-(1-isopropyl-5-methyl-1H-pyrazol-4-yl)imidazo[1,5-a]pyridine-6-sulfonamide]	< 100 nM	12 nM	–
N#CC1(NS(=O)(=O)c2cc(N3CCC(CO)(C(F)(F)F)CC3)c3cnc(-c4nnc(C(F)F)s4)n3c2)CC1 [Example 145, N-(1-cyanocyclopropyl)-3-(5-(difluoromethyl)-1,3,4-thiadiazol-2-yl)-8-(4-(hydroxymethyl)-4-(trifluoromethyl)piperidin-1-yl)imidazo[1,5-a]pyridine-6-sulfonamide]	100 to 500 nM	316 nM	–
CN1CC(Nc2cc(S(=O)(=O)NC3(C#N)CC3)cn3c(-c4nnc(C(F)F)s4)ncc23)C1 [Example 150, N-(1-cyanocyclopropyl)-3-(5-(difluoromethyl)-1,3,4-thiadiazol-2-yl)-8-((1-methylazetidin-3-yl)amino)imidazo[1,5-a]pyridine-6-sulfonamide]	< 100 nM	8.29 nM	–
N#CC1(NS(=O)(=O)c2cc(NC3CCC(OC(F)(F)F)C3)c3cnc(-c4nnc(C(F)F)s4)n3c2)CC1 (stereo not drawn) [Example 151, N-(1-cyanocyclopropyl)-3-(5-(difluoromethyl)-1,3,4-thiadiazol-2-yl)-8-((3-(trifluoromethoxy)cyclopentyl)amino)imidazo[1,5-a]pyridine-6-sulfonamide]	100 to 500 nM	178 nM	–
O=S(=O)(NC1CC1)c1cc(N2Cc3c[nH]nc3C2)c2cnc(-c3nnc(C(F)(F)F)s3)n2c1 [Example 247, N-cyclopropyl-8-(2,6-dihydropyrrolo[3,4-c]pyrazol-5(4H)-yl)-3-(5-(trifluoromethyl)-1,3,4-thiadiazol-2-yl)imidazo[1,5-a]pyridine-6-sulfonamide]	–	–	27200 nM
N#CC1(NS(=O)(=O)c2cc(N3CCCC(N)C3)c3cnc(-c4nnc(C(F)(F)F)s4)n3c2)CC1 (stereo not drawn) [Example 262, 8-(3-aminopiperidin-1-yl)-N-(1-cyanocyclopropyl)-3-(5-(trifluoromethyl)-1,3,4-thiadiazol-2-yl)imidazo[1,5-a]pyridine-6-sulfonamide]	–	–	2000 nM
N#CC1(NS(=O)(=O)c2cc(N3CCN(C(=O)C4CNCCN4)CC3)c3cnc(-c4nnc(C(F)(F)F)s4)n3c2)CC1 (stereo not drawn) [Example 280, N-(1-cyanocyclopropyl)-8-(4-(piperazine-2-carbonyl)piperazin-1-yl)-3-(5-(trifluoromethyl)-1,3,4-thiadiazol-2-yl)imidazo[1,5-a]pyridine-6-sulfonamide]	–	45.7 nM	–
C[C@@H]1CN(c2cc(S(=O)(=O)NC3(C#N)CC3)cn3c(-c4nnc(C(F)F)s4)ncc23)CCN1C(=O)C1CNC1 [Example 288, (R)-8-(4-(azetidine-3-carbonyl)-3-methylpiperazin-1-yl)-N-(1-cyanocyclopropyl)-3-(5-(difluoromethyl)-1,3,4-thiadiazol-2-yl)imidazo[1,5-a]pyridine-6-sulfonamide]	–	6.03 nM	–
